Data on 67 molecules can be found in PubChem BioAssay AID1902 (Broad Institute, 2009).

pEC50: −log10 of the molar value. Activity calls are given as the source filed them.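 The calls were made as follows: active = EC50 no more than a set limit of log units above the highest dose; inactive = the rest.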

This experiment concerns the target S. pyogenes SKKanGAS, kanamycin survival, BacTiterGlo, 6 h. Description: S. pyogenes SKKanGAS kanamycin growth inhibitors – SKKanGAS strain, luminescence, dose confirmation, streptokinase promoter inhibitor project, dose response (AID 1902).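 Also: lower survival reflects blocked streptokinase promoter driving kanamycin resistance gene.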
For the molecule `C/C(=N\Nc1cc(N2CCCCC2)nc(C)n1)c1ccc(Br)cc1`, the pEC50 was 5.35.

On to `O=C(Nc1ccccc1)Nc1cc(Cl)cc(Cl)c1`, for which the pEC50 is 5.17. Consider `COc1cc(O)c(CC=C(C)C)c(O)c1C(=O)CCc1ccc(O)cc1`, for which the pEC50 was 5.56. On the same count and under the same terms, the result for `Cn1c(=O)[nH]c(=O)c2c1nc(N1CCC(Cc3ccccc3)CC1)n2Cc1ccccc1` reads 5.41; that for `CCC1CCCCN1S(=O)(=O)c1ccc(C(=O)Nc2nnc(C3=COCCO3)o2)cc1` (configuration not stated), 5.24. Regarding `Cc1cccc(Nc2nc(-c3ccc(F)c(C)c3)cs2)n1`, the pEC50 is 5.07. Same read-out and setting: the figure for `COc1ccc(Cl)cc1C(=O)NNC(=S)NC(=O)c1ccc(F)c(F)c1` is 6.86; for `CCOC(=O)c1cnc(-n2nc(C)cc2C)nc1Nc1ccc(C)cc1` it is 7.00; for `CN1Cc2cc(C(=O)c3cc(Cl)cc(CSc4ncccn4)c3O)cnc2NC1=O` it is 5.03. Same read-out and setting: the result for `Cc1ccccc1Nc1c(-c2ccccn2)nc2c(C)cccn12` reads 6.40. Consider `c1ccc(N(c2ccccc2)c2nc(N3CCCC3)nc(-n3ccnc3)n2)cc1`, for which the pEC50 was 5.21. The same measure, in the same setting: the result for `COc1ccc(Cc2n[nH]c(=S)n2NC(=O)Nc2ccc(Cl)c(Cl)c2)cc1` reads 5.39. In the case of `O=S(=O)(Nc1cccc2cccnc12)c1ccccc1`, the pEC50 was 5.36. As for `Clc1ccccc1CN(Cc1ccccc1)c1ncnc2nc[nH]c12`, the pEC50 is 5.41. Same read-out and setting: the result for `CCN1CCN(Cc2ccc(NC(=O)c3ccc(C)c(NC(=O)C(=O)c4c[nH]c5ccccc45)c3)cc2C(F)(F)F)CC1` reads 5.48. For the molecule `Cc1cc(C)c(C2C3=C(Nc4c2c(C)nn4-c2ccccn2)c2ccccc2C3=O)c(C)c1` (configuration not stated), the pEC50 was 5.84. With `O=C(O)CN1C(=O)/C(=C\c2cc(Br)ccc2OCc2ccc(Cl)cc2Cl)SC1=S`, the pEC50 was 5.82.

On to `CC(C)OC(=O)c1c2nc3ccccc3nc2n2c1[nH]c(=O)c1ccccc12`, for which the pEC50 is 6.04. Regarding `Cc1csc(Nc2ccc(Cl)cc2)[n+]1-c1ccc(Cl)cc1`, the negative logarithm of the EC50 (pEC50) is 4.95. On the same count and under the same terms, the figure for `COc1ccc(/C=C/C(=O)NC(=S)NNC(=O)c2ccco2)cc1OC` is 5.39; for `Oc1[nH]c2ccccc2c1N=NC(=S)N1CCOCC1` it is 6.56. Turning to `O=C(N/N=C/c1cc([N+](=O)[O-])ccc1O)c1cccc(NC(=O)c2cccc(Cl)c2)c1`, the pEC50 was 5.33. The same measure, in the same setting: the figure for `Oc1[nH]c2ccccc2c1N=NC(=S)NCCc1ccccc1` is 5.36. Same read-out and setting: the result for `Cn1c(O)c(N=NC(=O)c2cc(-c3cccs3)nc3ccccc23)c2ccccc21` reads 5.59; that for `CCn1cc(C(=O)O)c(=O)c2cc(F)c(N3CCN(C(=S)Nc4ccc(OC)cc4)CC3)cc21`, 5.50. With `O=C(/C=C/c1c[nH]c2ccccc12)c1c(O)n(CCc2ccccc2)c(=O)[nH]c1=O`, the pEC50 is 5.51. Consider `Cc1cc(C)nc(SCC(=O)NC2=NN=C(c3ccc(Br)cc3)CS2)n1`, for which the pEC50 was 5.51.

Regarding `CCOC(=O)c1c(C)[nH]c(C(=O)N/N=C/c2cc([N+](=O)[O-])ccc2O)c1C`, the negative logarithm of the EC50 (pEC50) was 5.36. For `COc1ccc(N2CCN(C(=O)Cc3csc(NC(=O)Nc4ccccc4OC)n3)CC2)cc1`, the pEC50 was 4.90. On to `CCN1/C(=C\C=C\C2=[N+](CC)c3ccccc3C2(C)C)C(C)(C)c2ccccc21`, for which the pEC50 was 5.13. Still for that read-out and setting: the result for `CCn1c(=S)sc2c(=O)[nH]c(SCC(=O)Nc3cc(OC)ccc3OC)nc21` reads 5.18; that for `O=C(NC(=S)NNC(=O)c1cccs1)c1ccco1`, 5.21. On the same count and under the same terms, the figure for `CCOC(=O)c1sc(Nc2nc3ccc(OC)cc3s2)cc1C` is 5.53; for `Cn1c(Oc2ccccc2NCc2cc(Br)ccc2O)cc(=O)n(C)c1=O` it is 5.35; for `N[C@@H](C(=O)N[C@@H]1C(=O)N2C(C(=O)O)=C(Cl)CS[C@H]12)c1ccccc1` it is 6.33. For `CCCn1c(NC(=O)C23CC4CC(CC(O)(C4)C2)C3)nc2ccccc21`, the pEC50 was 5.51.

Take `CCc1sc(N(C(=O)Cc2ccccc2)c2ccc(F)cc2)nc1-c1ccccc1`: the pEC50 was 5.60. `CC1CCN(C(=O)c2ccc3c(c2)NC(=O)/C(=C/c2ccccc2)S3)CC1`: the pEC50 was 5.58. Still for that read-out and setting: the result for `C=C(C)[C@@H]1CCC2(C(=O)O)CC[C@]3(C)[C@H](CC[C@@H]4[C@@]5(C)CCC(=O)C(C)(C)[C@@H]5CC[C@]43C)[C@@H]12` (some centres not stated) reads 5.73; that for `COc1ccc(C(=O)c2coc3c2C(=O)C(=O)c2ccccc2-3)cc1`, 5.25; that for `Cc1ccc(OCCn2c(NC(=O)c3ccco3)nc3ccccc32)cc1`, 5.45. On to `CC[n+]1c(/C=C2\Sc3ccccc3N2C)ccc2cccc(C)c21`, for which the pEC50 is 5.42. Still for that read-out and setting: the figure for `COc1cccc(/C=N/NC(=O)c2cc3c(OC)ccc(OC)c3[nH]2)c1O` is 5.70; for `O=C(NC(NC(=S)Nc1ccccc1Cl)C(Cl)(Cl)Cl)c1cccc(Cl)c1` (configuration not stated) it is 5.80.

Regarding `CC(NS(=O)(=O)/C=C/c1ccccc1)C(=O)O` (configuration not stated), the EC50 was > 15 µM (inactive). With `Oc1[nH]c2ccc(Br)cc2c1N=NC(=S)N1CCOCC1`, the pEC50 is 6.97. With `COc1ccc(/C=C/C(=O)NC(=S)NNC(=O)Cc2cccs2)cc1`, the pEC50 is 5.91. Consider `Clc1ccc(SCc2cc(Cl)nc(-c3ccccc3)n2)cc1`, for which the EC50 is > 15 µM (inactive). On to `S=C(NCC1CCCCC1)Nc1ccc(Oc2ccccc2)cc1`, for which the pEC50 is 4.96. For the molecule `C/C(=N/NC(=O)CNC(=O)c1cccnc1)c1cccc([N+](=O)[O-])c1`, the EC50 is > 15 µM (inactive). For the molecule `Cc1cccc(NC(=O)c2nc[nH]c2C(=O)N[C@@H](CC(C)C)C(=O)OCc2ccccc2)c1`, the pEC50 is 5.78. With `O=C(Nc1nc(-c2ccccn2)cs1)C12CC3CC(CC(O)(C3)C1)C2`, the pEC50 was 5.84. `CCOc1cc(/C=C\[N+](=O)[O-])ccc1OCC(=O)Nc1ccccc1C`: the pEC50 was 5.02. Consider `CCCCCCc1cc2cc(C(=O)OCC)c(=O)oc2cc1O`, for which the pEC50 was 5.26.

For `CC1(C)CN=C(Nc2nc3ccccc3s2)S1`, the pEC50 was 5.17. For `CCCCCCCCCCCCC/C=C/[C@@H](O)[C@@H](N)CO`, the pEC50 is 5.59. Turning to `COc1cc(Cc2cc(N)nc(N)n2)cc(OC)c1OC`, the pEC50 is 5.37. Same read-out and setting: the figure for `Cc1ccc(C)c(S(=O)(=O)N2CCN(Cc3ccc(O)c4ncccc34)CC2)c1` is 5.55. `CCCOC(=O)c1ccc(Oc2cn[nH]c2-c2ccc(O)cc2O)cc1`: the pEC50 was 5.48. The same measure, in the same setting: the figure for `CCS(=O)(=O)Nc1ccc(-c2cc(-c3ccccc3)c3cc(C)ccc3n2)cc1` is 5.39. With `Cc1cn(-c2cc(C(=O)Nc3ccc(C)c(NC(=O)C(=O)c4c[nH]c5ccccc45)c3)cc(C(F)(F)F)c2)cn1`, the pEC50 was 5.56.

`COc1cc(/C=C/C(=O)OCC(=O)c2c(N)n(C)c(=O)n(C)c2=O)ccc1OCC#N`: the pEC50 is 5.26. Take `Cc1ccc(Cl)cc1N1CCN(C(=O)c2cccc3c(=O)c(C)c(-c4ccccc4)oc23)CC1`: the pEC50 was 5.40. For `COc1cc(C)c(C(=O)CC(=O)c2c(C)cc(OC)cc2C)c(C)c1`, the pEC50 is 5.79.

On to `CSc1cccc(NC(=O)OC2CCCCCCCCCCC2)c1`, for which the pEC50 is 5.39. Regarding `Cc1ccc(-c2cc(C(=O)Nc3ccc(S(=O)(=O)Nc4cc(C)on4)cc3)c3ccccc3n2)c(C)c1`, the negative-log EC50 (pEC50) was 5.25.

Consider `O=C(Nc1ccccc1N1CCCC1)c1ccc2c(c1)OCO2`, for which the EC50 was > 15 µM (inactive).
